Consider seven compounds from patent US20250353891A1 (MEDIMMUNE LIMITED, priority 2022, published 2025).

pEC50: −log10 of the molar value. Starred links: 1 amine or outer side, 2 acyl side, 3 side chain; linkers in the order of their positions; H or OH if unused. Non-standard residues stand in square brackets, D forms with d. Residues, ends and D or L forms follow the SMILES beside them. Groups on a side chain read outwards from the residue. *: point of attachment. γGlu = O=C(O)[C@H](CCC(=O)[*:2])N[*:1]; Stearoyl = CCCCCCCCCCCCCCCCCC(=O)*; Palmitoyl = CCCCCCCCCCCCCCCC(=O)*; αMeF = C[C@](N)(Cc1ccccc1)C(=O)O; Myristoyl = CCCCCCCCCCCCCC(=O)*; PEG2 = NCCOCCOCCC(=O)O; Aib = CC(C)(N)C(=O)O

Experiment [1] addresses human GLP-1 receptor (hGLP-1R) (Homo sapiens, UniProt P43220). The experiment can be described thus: cAMP production (HTRF) in CHO cells expressing hGLP-1R. Format: cell-based. The arrangement: expressed in transfected cells. As to conditions: for pEC50: Table 6, peptides modified at position 17, cAMP in CHO hGLP-1R cells, geometric mean, read-out: hGLP-1R EC50; for % Relative Potency Ratio: Table 6, % GLP-1R activity relative to GLP-1 / % GlucR activity relative to glucagon. The gist of the method:
(§1)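 Cells were resuspended in assay buffer at batch-optimized density, typically 1×10^5 cells/mL for hGLP-1R and 2×10^5 cells/mL for hGCGR. After 30 min incubation at room temperature with compound, cAMP was measured by two-step HTRF. EC50 values came from 4-parameter logistic fits of % Delta F.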

Experiment [2] has as its target human glucagon receptor (hGCGR) (Homo sapiens, UniProt P47871). The experiment can be described thus: cAMP production (HTRF) in CHO cells expressing hGCGR. The arrangement: expressed in transfected cells. Format: cell-based. Particulars: Table 6, peptides modified at position 17; cAMP in CHO hGCGR cells; geometric mean; read-out: hGluc-R EC50. A digest of the protocol:
as §1
(Changes in cAMP serve as a functional read-out for many G protein-coupled receptors.)

What is called pEC50 is the negative decadic logarithm of the EC50, by convention in mol/L.

Sequence of human GLP-1 receptor (hGLP-1R) (P43220 24-463): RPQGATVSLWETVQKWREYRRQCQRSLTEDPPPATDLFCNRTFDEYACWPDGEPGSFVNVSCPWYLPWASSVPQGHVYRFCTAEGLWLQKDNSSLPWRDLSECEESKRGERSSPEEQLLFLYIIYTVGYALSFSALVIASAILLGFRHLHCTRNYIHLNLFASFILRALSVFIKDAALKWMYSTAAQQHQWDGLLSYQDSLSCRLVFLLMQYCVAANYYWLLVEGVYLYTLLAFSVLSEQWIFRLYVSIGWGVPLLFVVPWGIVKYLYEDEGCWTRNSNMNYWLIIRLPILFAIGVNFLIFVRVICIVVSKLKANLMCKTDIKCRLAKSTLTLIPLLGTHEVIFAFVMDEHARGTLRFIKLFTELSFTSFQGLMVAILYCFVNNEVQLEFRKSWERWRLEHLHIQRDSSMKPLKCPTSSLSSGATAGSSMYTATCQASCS
Sequence of human glucagon receptor (hGCGR) (P47871 26-477): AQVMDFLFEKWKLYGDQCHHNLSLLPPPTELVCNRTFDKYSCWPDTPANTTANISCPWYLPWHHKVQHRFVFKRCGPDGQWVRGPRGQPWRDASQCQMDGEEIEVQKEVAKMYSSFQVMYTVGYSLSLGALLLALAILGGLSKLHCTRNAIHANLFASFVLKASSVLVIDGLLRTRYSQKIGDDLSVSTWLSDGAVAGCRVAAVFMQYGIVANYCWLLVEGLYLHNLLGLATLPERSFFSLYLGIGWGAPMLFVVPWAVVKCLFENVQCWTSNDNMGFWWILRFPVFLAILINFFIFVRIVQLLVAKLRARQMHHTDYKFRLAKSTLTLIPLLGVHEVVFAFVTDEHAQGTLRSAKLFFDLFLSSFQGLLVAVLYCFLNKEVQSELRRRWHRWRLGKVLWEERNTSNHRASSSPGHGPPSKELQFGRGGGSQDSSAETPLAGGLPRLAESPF

Turning to `CCCCCCCCCCCCCCCC(=O)N[C@@H](CCC(=O)N[C@@H](CCC(=O)NCCOCCOCCC(=O)NCCOCCOCCC(=O)NCCCC[C@H](NC(=O)[C@H](CO)NC(=O)[C@H](CC(=O)O)NC(=O)[C@H](CC(C)C)NC(=O)[C@@H](NC(=O)[C@H](CCCCN)NC(=O)[C@H](CO)NC(=O)[C@@H](NC(=O)[C@H](CC(=O)O)NC(=O)[C@H](CO)NC(=O)[C@@H](NC(=O)[C@](C)(Cc1ccccc1)NC(=O)[C@H](CO)NC(=O)CNC(=O)[C@H](CCC(N)=O)NC(=O)[C@H](CO)NC(=O)[C@@H](N)Cc1c[nH]cn1)[C@@H](C)O)C(C)C)[C@@H](C)CC)C(=O)N[C@@H](C)C(=O)N[C@@H](C)C(=O)N[C@@H](CCC(N)=O)C(=O)N[C@@H](CC(=O)O)C(=O)N[C@@](C)(Cc1ccccc1)C(=O)N[C@H](C(=O)N[C@@H](CCC(=O)O)C(=O)N[C@@H](Cc1c[nH]c2ccccc12)C(=O)N[C@H](C(=O)N[C@H](C(=O)N[C@@H](CC(N)=O)C(=O)N[C@H](C(N)=O)[C@@H](C)O)[C@@H](C)CC)[C@@H](C)CC)C(C)C)C(=O)O)C(=O)O` [Peptide 116] (H-HSQGS[αMeF]TSDVSKILDSK([PEG2-PEG2-γGlu-γGlu-Palmitoyl])AAQD[αMeF]VEWIINT-NH2; N-terminus assumed), the pEC50 in experiment [1] was 10.61; in experiment [2], 10.99. Further, the “% Relative Potency Ratio” value in experiment [1] was determined as 0.8.
Turning to `CCCCCCCCCCCCCCCC(=O)N[C@@H](CCC(=O)N[C@@H](CCC(=O)NCCOCCOCCC(=O)NCCOCCOCCC(=O)NCCCC[C@H](NC(=O)[C@H](CO)NC(=O)[C@H](CC(=O)O)NC(=O)[C@H](CC(C)C)NC(=O)[C@@H](NC(=O)[C@H](CCCCN)NC(=O)[C@H](CO)NC(=O)[C@@H](NC(=O)[C@H](CC(=O)O)NC(=O)[C@H](CO)NC(=O)[C@@H](NC(=O)[C@](C)(Cc1ccccc1)NC(=O)[C@H](CO)NC(=O)CNC(=O)[C@H](CCC(N)=O)NC(=O)[C@H](CO)NC(=O)[C@@H](N)Cc1c[nH]cn1)[C@@H](C)O)C(C)C)[C@@H](C)CC)C(=O)N[C@@H](C)C(=O)N[C@@H](C)C(=O)N[C@@H](CCC(N)=O)C(=O)N[C@@H](CC(=O)O)C(=O)N[C@@](C)(Cc1ccccc1)C(=O)N[C@H](C(=O)N[C@@H](CCC(N)=O)C(=O)NC(C)(C)C(=O)N[C@H](C(=O)N[C@H](C(=O)N[C@@H](CC(N)=O)C(=O)N[C@H](C(N)=O)[C@@H](C)O)[C@@H](C)CC)[C@@H](C)CC)C(C)C)C(=O)O)C(=O)O` [Peptide 118] (H-HSQGS[αMeF]TSDVSKILDSK([PEG2-PEG2-γGlu-γGlu-Palmitoyl])AAQD[αMeF]VQ[Aib]IINT-NH2), the pEC50 in experiment [1] was 11.97; in experiment [2], 11.92. For the same compound, the “% Relative Potency Ratio” value in experiment [1] came out at 2.2.
On to `CCCCCCCCCCCCCC(=O)N[C@@H](CCC(=O)N[C@@H](CCC(=O)NCCOCCOCCC(=O)NCCOCCOCCC(=O)NCCCC[C@H](NC(=O)[C@H](CO)NC(=O)[C@H](CC(=O)O)NC(=O)[C@H](CC(C)C)NC(=O)[C@@H](NC(=O)[C@H](CCCCN)NC(=O)[C@H](CO)NC(=O)[C@@H](NC(=O)[C@H](CC(=O)O)NC(=O)[C@H](CO)NC(=O)[C@@H](NC(=O)[C@](C)(Cc1ccccc1)NC(=O)[C@H](CO)NC(=O)CNC(=O)[C@H](CCC(N)=O)NC(=O)[C@H](CO)NC(=O)[C@@H](N)Cc1c[nH]cn1)[C@@H](C)O)C(C)C)[C@@H](C)CC)C(=O)N[C@@H](C)C(=O)N[C@@H](C)C(=O)N[C@@H](CCC(N)=O)C(=O)N[C@@H](CC(=O)O)C(=O)N[C@@](C)(Cc1ccccc1)C(=O)N[C@H](C(=O)N[C@@H](CCC(N)=O)C(=O)NC(C)(C)C(=O)N[C@H](C(=O)N[C@H](C(=O)N[C@@H](CC(N)=O)C(=O)N[C@H](C(N)=O)[C@@H](C)O)[C@@H](C)CC)[C@@H](C)CC)C(C)C)C(=O)O)C(=O)O` [Peptide 119] (H-HSQGS[αMeF]TSDVSKILDSK([PEG2-PEG2-γGlu-γGlu-Myristoyl])AAQD[αMeF]VQ[Aib]IINT-NH2; N-terminus assumed), for which, in experiment [1], the pEC50 was 11.86 and the “% Relative Potency Ratio” value stood at 2.4. The negative logarithm of the EC50 (pEC50) in experiment [2] is 11.77.
Consider `CCCCCCCCCCCCCCCCCC(=O)N[C@@H](CCC(=O)NCCOCCOCCC(=O)NCCOCCOCCC(=O)NCCCC[C@H](NC(=O)[C@H](CO)NC(=O)[C@H](CC(=O)O)NC(=O)[C@H](CC(C)C)NC(=O)[C@@H](NC(=O)[C@H](CCCCN)NC(=O)[C@H](CO)NC(=O)[C@@H](NC(=O)[C@H](CC(=O)O)NC(=O)[C@H](CO)NC(=O)[C@@H](NC(=O)[C@](C)(Cc1ccccc1)NC(=O)[C@H](CO)NC(=O)CNC(=O)[C@H](CCC(N)=O)NC(=O)[C@H](CO)NC(=O)[C@@H](N)Cc1c[nH]cn1)[C@@H](C)O)C(C)C)[C@@H](C)CC)C(=O)N[C@@H](C)C(=O)N[C@@H](C)C(=O)N[C@@H](CCC(N)=O)C(=O)N[C@@H](CC(=O)O)C(=O)N[C@@](C)(Cc1ccccc1)C(=O)N[C@H](C(=O)N[C@@H](CCC(N)=O)C(=O)NC(C)(C)C(=O)N[C@H](C(=O)N[C@H](C(=O)N[C@@H](CC(N)=O)C(=O)N[C@H](C(N)=O)[C@@H](C)O)[C@@H](C)CC)[C@@H](C)CC)C(C)C)C(=O)O` [Peptide 120] (H-HSQGS[αMeF]TSDVSKILDSK([PEG2-PEG2-γGlu-Stearoyl])AAQD[αMeF]VQ[Aib]IINT-NH2; N-terminus assumed), for which, in experiment [1], the pEC50 was 11.74 and the “% Relative Potency Ratio” value turned out to be 2.9. Besides, the pEC50 in experiment [2] was 11.58.
For the compound `CCCCCCCCCCCCCCCC(=O)N[C@@H](CCC(=O)NCCOCCOCCC(=O)NCCOCCOCCC(=O)NCCCC[C@H](NC(=O)[C@H](CO)NC(=O)[C@H](CC(=O)O)NC(=O)[C@H](CC(C)C)NC(=O)[C@@H](NC(=O)[C@H](CCCCN)NC(=O)[C@H](CO)NC(=O)[C@@H](NC(=O)[C@H](CC(=O)O)NC(=O)[C@H](CO)NC(=O)[C@@H](NC(=O)[C@](C)(Cc1ccccc1)NC(=O)[C@H](CO)NC(=O)CNC(=O)[C@H](CCC(N)=O)NC(=O)[C@H](CO)NC(=O)[C@@H](N)Cc1c[nH]cn1)[C@@H](C)O)C(C)C)[C@@H](C)CC)C(=O)N[C@@H](C)C(=O)N[C@@H](C)C(=O)N[C@@H](CCC(N)=O)C(=O)N[C@@H](CC(=O)O)C(=O)N[C@@](C)(Cc1ccccc1)C(=O)N[C@H](C(=O)N[C@@H](CCC(N)=O)C(=O)NC(C)(C)C(=O)N[C@H](C(=O)N[C@H](C(=O)N[C@@H](CC(N)=O)C(=O)N[C@H](C(N)=O)[C@@H](C)O)[C@@H](C)CC)[C@@H](C)CC)C(C)C)C(=O)O` [Peptide 121] (H-HSQGS[αMeF]TSDVSKILDSK([PEG2-PEG2-γGlu-Palmitoyl])AAQD[αMeF]VQ[Aib]IINT-NH2; N-terminus assumed), the results for the pEC50 in experiment [1] and in experiment [2] were 11.82 and 11.92, respectively. The “% Relative Potency Ratio” value in experiment [1] amounted to 1.6.
For `CCCCCCCCCCCCCCCC(=O)N[C@@H](CCC(=O)N[C@@H](CCC(=O)NCCOCCOCCC(=O)NCCOCCOCCC(=O)NCCCC[C@H](NC(=O)[C@H](CO)NC(=O)[C@H](CC(=O)O)NC(=O)[C@H](CC(C)C)NC(=O)[C@@H](NC(=O)[C@H](CCCCN)NC(=O)[C@H](CO)NC(=O)[C@@H](NC(=O)[C@H](CC(=O)O)NC(=O)[C@H](CO)NC(=O)[C@@H](NC(=O)[C@](C)(Cc1ccccc1)NC(=O)[C@H](CO)NC(=O)CNC(=O)[C@H](CCC(N)=O)NC(=O)C(C)(C)NC(=O)[C@@H](N)Cc1c[nH]cn1)[C@@H](C)O)C(C)C)[C@@H](C)CC)C(=O)N[C@@H](C)C(=O)N[C@@H](C)C(=O)N[C@@H](CCC(N)=O)C(=O)N[C@@H](CC(=O)O)C(=O)N[C@@](C)(Cc1ccccc1)C(=O)N[C@H](C(=O)N[C@@H](CCC(N)=O)C(=O)N[C@H](C(=O)N[C@H](C(=O)N[C@@H](C)C(=O)N[C@@H](CC(N)=O)C(N)=O)[C@@H](C)CC)[C@@H](C)CC)C(C)C)C(=O)O)C(=O)O` [Peptide 123] (H-H[Aib]QGS[αMeF]TSDVSKILDSK([PEG2-PEG2-γGlu-γGlu-Palmitoyl])AAQD[αMeF]VQIIAN-NH2; N-terminus assumed), the “% Relative Potency Ratio” value in experiment [1] is 51.4. For the same compound, the pEC50 in experiment [2] is 10.89.
With `CCCCCCCCCCCCCCCCCC(=O)N[C@@H](CCC(=O)N[C@@H](CCC(=O)NCCOCCOCCC(=O)NCCOCCOCCC(=O)NCCCC[C@H](NC(=O)[C@H](CO)NC(=O)[C@H](CC(=O)O)NC(=O)[C@H](CC(C)C)NC(=O)[C@@H](NC(=O)[C@H](CCCCN)NC(=O)[C@H](CO)NC(=O)[C@@H](NC(=O)[C@H](CC(=O)O)NC(=O)[C@H](CO)NC(=O)[C@@H](NC(=O)[C@](C)(Cc1ccccc1)NC(=O)[C@H](CO)NC(=O)CNC(=O)[C@H](CCC(N)=O)NC(=O)C(C)(C)NC(=O)[C@@H](N)Cc1c[nH]cn1)[C@@H](C)O)C(C)C)[C@@H](C)CC)C(=O)N[C@@H](C)C(=O)N[C@@H](C)C(=O)N[C@@H](CCC(N)=O)C(=O)N[C@@H](CC(=O)O)C(=O)N[C@@](C)(Cc1ccccc1)C(=O)N[C@H](C(=O)N[C@@H](CCC(N)=O)C(=O)NC(C)(C)C(=O)N[C@H](C(=O)N[C@H](C(=O)N[C@@H](CC(N)=O)C(=O)N[C@H](C(N)=O)[C@@H](C)O)[C@@H](C)CC)[C@@H](C)CC)C(C)C)C(=O)O)C(=O)O` [Peptide 124] (H-H[Aib]QGS[αMeF]TSDVSKILDSK([PEG2-PEG2-γGlu-γGlu-Stearoyl])AAQD[αMeF]VQ[Aib]IINT-NH2; N-terminus assumed), in experiment [1], the pEC50 was 11.89 and the “% Relative Potency Ratio” value came out at 15.2. The pEC50 in experiment [2] was 11.01.
